Like-named read-outs stand apart in the source and are kept apart here.
Target: T1, DCAF1 WD40 domain (residues 1077-1390) (Homo sapiens, UniProt Q9Y4B6)
T1 construct: DCAF1 WD40 domain (residues 1077-1390)
Assay: DCAF1 binding assay by SPR (Biacore 8K+), DCAF1-3 KD
Conditions: 25 °C

T1 sequence (Q9Y4B6 1077-1390): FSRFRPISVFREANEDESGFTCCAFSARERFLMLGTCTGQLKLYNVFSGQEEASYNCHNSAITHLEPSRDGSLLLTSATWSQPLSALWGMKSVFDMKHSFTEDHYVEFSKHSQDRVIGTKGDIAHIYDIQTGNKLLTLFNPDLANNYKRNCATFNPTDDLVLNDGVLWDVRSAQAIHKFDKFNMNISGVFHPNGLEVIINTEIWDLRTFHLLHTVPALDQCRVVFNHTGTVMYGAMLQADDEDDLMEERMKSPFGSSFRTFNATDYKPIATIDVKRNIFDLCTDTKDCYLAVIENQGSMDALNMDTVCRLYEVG

Kd (read-out: DCAF1-3 SPR (KD)) [µM] | Compound | Kd (DCAF1-3 SPR (KD)) [µM]
10 to 100 | OC1(C2CCCCC2)CCC[C@@H](Nc2cc(N3CCCCC3)ccn2)C1 (some centres unmarked) [I-804] | 
10 to 100 | Cc1sc2c(c1C)C(c1ccc(Cl)cc1)=N[C@@H](CC(=O)NCCOCCOCCOCCOCCOCCn1ncc(C(=O)N[C@@H](CC(N)=O)c3cccc(Cl)c3)c1-c1ccccc1F)c1nnc(C)n1-2 [I-488] | 
> 200 | CCN1CCN(c2ccnc(NC3CCCN(c4cccc(F)c4)C3)n2)CC1 (centres unmarked) [I-24] | 
> 200 | Fc1cccc(N2CC[C@@H]3CCCc4cnc(N5CCOCC5)cc4N[C@H]3C2)c1 [I-363] | 
> 200 | COC(=O)c1cc(-c2cccc(N3CCC[C@@H](Nc4cc(N5CCOCC5)ccn4)C3)c2)on1 [I-785] | 
100 to 200 | Fc1cccc(N2CCC[C@H](Nc3nccc(N4CCOCC4)n3)C2)c1 [I-119] | 
100 to 200 | Fc1ccc(N2CCC[C@@H](Nc3cc(N4CCOCC4)ncn3)C2)cc1 [I-7] | 
< 10 | NC(=O)NCc1cccc(N2CCC[C@H]3[C@@H]2CCN3c2cc(N3CCCCC3)ccn2)c1 [I-953] | 
> 200 | Cc1sc2c(c1C)C(c1ccc(Cl)cc1)=N[C@@H](CC(=O)NCCCCCCCCCCCCCCCCCCCCC1CCN(c3ccnc(N4CC[C@@H]5[C@H]4CCCN5c4cccc(F)c4)c3)CC1)c1nnc(C)n1-2 [I-903] | 
10 to 100 | C=CC(=O)Nc1ccnc(N[C@@H]2CCCN(c3cccc(F)c3)C2)c1 [I-447] | 
< 10 | Cc1c(F)ccc(F)c1-c1c(C(=O)N[C@@H](CC(N)=O)c2cccc(Cl)c2)c[nH]c1C(=O)c1cccc(-c2ccccc2)c1 [I-702] | 
< 10 | Nc1cc(N[C@@H]2CCCN(c3cccc(F)c3)C2)cc(N2CCOCC2)c1 [I-538] | 
> 200 | Oc1ccc(N2CCOCC2)cc1N[C@@H]1CCCN(c2cccc(F)c2)C1 [I-325] | 
10 to 100 | c1cnc2cc(N3CCC[C@@H](Nc4nccc(N5CCOCC5)n4)C3)ccc2c1 [I-45] | 
< 10 | Cc1c(F)ccc(F)c1-c1c(C(=O)N[C@@H](CC(N)=O)c2cccc(Cl)c2)c[nH]c1C(=O)c1ccc(CCCOCCOCCOCCOCCOCCN)cc1 [I-805] | 
> 200 | CC(=O)Nc1ccc(N2CCC[C@H]3[C@@H]2CCN3c2cc(N3CCCCC3)ccn2)cc1F [I-747] | 
100 to 200 | C=CC(=O)N1CCC(c2[nH]ncc2C(=O)N[C@H](CC(N)=O)c2cccc(Cl)c2)CC1 [I-535] | 
< 10 | Cc1c(F)ccc(F)c1-c1c(C(=O)N[C@@H](CC(N)=O)c2cccc(Cl)c2)c[nH]c1C(=O)c1cccc(C2CCCCC2)c1 [I-732] | 
< 10 | NC(=O)C[C@H](NC(=O)c1c[nH]cc1-c1ccccc1F)c1cccc(Cl)c1 [I-90] | 
< 10 | N#Cc1cccc(-c2[nH]ncc2C(=O)N[C@@H](CC(N)=O)c2cccc(Cl)c2)c1 [I-337] | 
< 10 | NC(=O)C[C@H](NC(=O)c1cn[nH]c1-c1ccccc1F)c1ccccc1F [I-602] | 
> 200 | Fc1cccc(N2CCC[C@@H]3[C@H]2CCCN3c2cc(N3CCCCC3)ccn2)c1 [I-703] | 
10 to 100 | c1ccc2c(N3CCC[C@@H](Nc4cc(N5CCOCC5)ccn4)C3)nsc2c1 [I-112] | 
> 200 | c1ccc(-c2nc3cccc(N4CCC[C@@H](Nc5cc(N6CCOCC6)ccn5)C4)c3o2)cc1 [I-685] | 
> 200 | NC(=O)CC1(NC(=O)c2cn[nH]c2-c2ccccc2F)CCCc2c(Cl)cccc21 (centres unmarked) [I-562] | 
10 to 100 | OC[C@H]1CC[C@H](Nc2cc(N3CCCCC3)ccn2)CN1c1cccc(F)c1 [I-994] | 
> 200 | NC(=O)C[C@](CO)(NC(=O)c1c[nH]nc1-c1ccccc1F)c1cccc(Cl)c1 [I-253] | 

Kd (read-out: DCAF1-3 SPR (KD)) [µM] | Compound | Kd (DCAF1-3 SPR (KD)) [µM]
> 200 | NC(=O)Cc1ccc(N2CCC[C@@H](Nc3cc(N4CCOCC4)ccn3)C2)cc1 [I-863] | 
> 200 | C=CC(=O)N1CCCC(N(C)c2ccnc(N[C@@H]3CCCN(c4cccc(F)c4)C3)c2)C1 (some centres unmarked) [I-459] | 
> 200 | C=CC(=O)N[C@H]1CCN(c2ccnc(N[C@@H]3CCCN(c4cccc(F)c4)C3)c2)C1 [I-478] | 
> 200 | c1ccc(COc2cccc(N3CCC[C@@H](Nc4cc(N5CCOCC5)ccn4)C3)c2)cc1 [I-690] | 
10 to 100 | Cc1c(F)ccc(F)c1-c1[nH]ncc1C(=O)N[C@H](c1cccc(Cl)c1)[C@@H]1CCOC1 [I-967] | 
100 to 200 | C=CC(=O)N1CCCC(c2[nH]ncc2C(=O)N[C@@H](CC(N)=O)c2cccc(Cl)c2)C1 (some centres unmarked) [I-542] | 
10 to 100 | COCc1ccc(F)c(-c2[nH]ncc2C(=O)N[C@@H](CC(N)=O)c2cccc(Cl)c2)c1 [I-248] | 
< 10 | COCCOCC[C@H]1CN(c2cc(N3CCCCC3)ccn2)[C@@H]2CCCN(c3cccc(F)c3)[C@H]12 [I-931] | 
< 10 | NC(=O)C[C@H](NC(=O)c1c[nH]c(-c2ccccc2)c1-c1ccccc1F)c1cccc(Cl)c1 [I-594] | 
10 to 100 | Fc1cccc(N2CC[C@@H]3CN(c4cc(N5CCCCC5)ccn4)C[C@@H]32)c1 [I-667] | 
> 200 | CC(=O)n1ncc(C(=O)N[C@@H](CC(N)=O)c2cccc(Cl)c2)c1-c1ccccc1F [I-175] | 
< 10 | Cc1ccc(S(=O)(=O)c2[nH]cc(C(=O)N[C@@H](CC(N)=O)c3cccc(Cl)c3)c2-c2c(F)ccc(F)c2C)cc1 [I-817] | 
< 10 | NC(=O)C[C@H](NC(=O)c1c[nH]c(C(=O)c2ccccc2)c1-c1c(F)cc(Cl)cc1F)c1cccc(Cl)c1 [I-946] | 
> 200 | Fc1cccc(N2CCC[C@@H](Nc3cc([C@H]4CCCCO4)ccn3)C2)c1 [I-95] | 
 | Fc1cccc(N2CCC[C@@H]3[C@H]2CCN3c2cc(N3CCCCC3)ccn2)c1 [I-579, (3aR,7aR)-4-(3-fluorophenyl)-1-(4-(piperidin-1-yl)pyridin-2-yl)octahydro-1H-pyrrolo[3,2-b]pyridine] | < 10
> 200 | Oc1cnc(N2CCOCC2)cc1N[C@@H]1CCCN(c2cccc(F)c2)C1 [I-382] | 
10 to 100 | Fc1cccc(N2CC[C@@]3(CCN(c4cc(N5CCCCC5)ccn4)C3)C2)c1 [I-659] | 
> 200 | NC(=O)C[C@H](NC(=O)c1cc(=O)[nH]cc1-c1ccccc1F)c1cccc(Cl)c1 [I-215] | 
> 200 | CO[C@@H]1C[C@@H](Nc2cc(N3CCOCC3)ncn2)CN(c2cccc(F)c2)C1 [I-164] | 
> 200 | C=CC(=O)N1CC[C@H](N(C)c2ccnc(N[C@@H]3CCCN(c4cccc(F)c4)C3)c2)C1 [I-477] | 
< 10 | Cc1c(F)ccc(F)c1-c1[nH]ncc1C(=O)N[C@@H](c1cccc(Cl)c1)[C@@H]1CCCS1(=O)=O [I-1002] | 
> 200 | Fc1cccc(N2CCC[C@@H](Nc3cc(C4CCOCC4)[nH]n3)C2)c1 [I-608] | 
> 200 | C[C@@]1(Nc2cc(N3CCOCC3)ccn2)CCCN(c2cccc(F)c2)C1 [I-500] | 
> 200 | Fc1cccc(N2CCC[C@@H](Nc3cc(C4CCNCC4)ccn3)C2)c1 [I-93] | 
> 200 | Fc1cccc(N2CCC[C@@H](N3CCCc4c(N5CCCCC5)ccnc43)C2)c1 [I-808] | 
> 200 | N#Cc1nccc(CN2CCC[C@@H](Nc3cc(N4CCOCC4)ccn3)C2)n1 [I-476] | 
100 to 200 | COc1c(N[C@@H]2CCCN(c3cccc(F)c3)C2)cncc1N1CCOCC1 [I-544] | 

Kd (read-out: DCAF1-3 SPR (KD)) [µM] | Compound | Kd (DCAF1-3 SPR (KD)) [µM]
> 200 | Fc1cccc(N2CCC3CCCc4ncc(N5CCOCC5)cc4NC3C2)c1 (centres unmarked) [I-228] | 
> 200 | C=CC(=O)N1CC(c2n[nH]cc2C(=O)N[C@@H](CC(N)=O)c2cccc(Cl)c2)C1 [I-455] | 
< 10 | COCCOCCC1CN(c2cc(N3CCOCC3)ccn2)[C@H]2CCCN(c3cccc(F)c3)[C@@H]12 (some centres unmarked) [I-827] | 
> 200 | Cc1nc(N2CCC[C@@H](Nc3cc(N4CCOCC4)ccn3)C2)ccc1CO [I-432] | 
< 10 | C[C@H]1CC[C@@H](c2[nH]ncc2C(=O)N[C@@H](CC(N)=O)c2cccc(Cl)c2)CC1 [I-742] | 
> 200 | Nc1nc(N[C@@H]2CCCN(c3cccc(F)c3)C2)cc(N2CCOCC2)n1 [I-368] | 
< 10 | Cc1c(F)ccc(F)c1-c1c(C(=O)N[C@@H](CC(=O)N2CC[C@H](O)C2)c2cccc(Cl)c2)cn(C)c1C#N [I-1004] | 
> 200 | C[S@@+]([O-])c1ccc(N2CCC[C@@H](Nc3cc(N4CCOCC4)ccn3)C2)cc1 [I-864] | 
10 to 100 | NC(=O)C[C@H](NC(=O)c1cn[nH]c1-c1ccc(O)cc1)c1cccc(Cl)c1 [I-333] | 
10 to 100 | Fc1cccc(N2CCC[C@@H]3CN(c4cc(N5CCCCC5)ccn4)C[C@@H]32)c1 [I-668] | 
> 200 | OCCCc1ccc(N2CCC[C@@H](Nc3cc(N4CCOCC4)ccn3)C2)cc1 [I-873] | 
> 200 | CCc1cccc([C@H](CC(N)=O)NC(=O)c2cn[nH]c2-c2ccccc2F)c1 [I-638] | 
> 200 | NC(=O)C[C@](NC(=O)c1c[nH]nc1-c1ccccc1F)(c1cccc(Cl)c1)C1CC1 [I-254] | 
> 200 | OC[C@@H]1[C@H](Nc2cc(N3CCOCC3)ccn2)CCCN1c1cccc(F)c1 [I-279] | 
 | Cc1c(F)ccc(F)c1-c1c(C(=O)N[C@@H](CC(N)=O)c2cccc(Cl)c2)cn(C)c1C#N [I-887, (S)—N-(3-amino-1-(3-chlorophenyl)-3-oxopropyl)-5-cyano-4-(3,6-difluoro-2-methylphenyl)-1-methyl-1H-pyrrole-3-carboxamide] | < 10
100 to 200 | Fc1cccc(N2CCC[C@@H](n3ccc4c(N5CCOCC5)ncnc43)C2)c1 [I-59] | 
< 10 | CCn1cc(C(=O)N[C@@H](CC(N)=O)c2cccc(Cl)c2)c(-c2c(F)ccc(F)c2C)c1C#N [I-974] | 
< 10 | Fc1cccc(N2CCC[C@@H](Nc3cc(N4C5CCCC4C5)ccn3)C2)c1 [I-616] | 
< 10 | Cc1cccc(F)c1-c1[nH]ncc1C(=O)N[C@H](CC(N)=O)c1cc(F)cc(Cl)c1 [I-749] | 
> 200 | c1cc(N2CCC[C@@H](Nc3cc(N4CCOCC4)ncn3)C2)c2ccncc2c1 [I-394] | 
10 to 100 | Fc1cccc(N2CCC[C@@H](Nc3cc([C@H]4CCCNC4)ccn3)C2)c1 [I-110] | 
< 10 | C[C@@H]1CCCCC1c1[nH]ncc1C(=O)N[C@@H](CC(N)=O)c1cccc(Cl)c1 (some centres unmarked) [I-724] | 
> 200 | C[C@@]1(Nc2cc(N3CCOCC3)ncn2)CCCN(c2cccc(F)c2)C1 [I-176] | 
> 200 | Fc1cccc(N2CCC[C@@H](Nc3cc(C4CCOCC4)ccn3)C2)c1 [I-92] | 
10 to 100 | NC(=O)C[C@H](NC(=O)c1cn[nH]c1-c1cccnc1)c1cccc(Cl)c1 [I-127] | 

Compound | Kd (read-out: DCAF1-3 SPR (KD)) [µM] | Kd (DCAF1-3 SPR (KD)) [µM]
O=[N+]([O-])c1ccc(N2CCC[C@@H](n3ccc4c(N5CCCCC5)ccnc43)C2)cc1F [I-917] | < 10 | 
